# Measured values from patent US20110182953A1, “P[…] OF CALCIUM ACAMPROSATE” (priority 2009, published 2011).
# Assay: accelerated stability tests
# Assay type: physicochemical
# Details: exposed to heat and/or humidity sources
structure (smiles),measurement,value
"CC(=O)NCCCS(=O)(=O)O [form B, calcium acamprosate]",stability of the polymorphic form in accelerated stability tests,does not alter
